Experimental data taken from patent publication US20180370927A1, “MICROBIOCIDAL OXADIAZOLE DERIVATIVES” (SYNGENTA PARTICIPATIONS AG, priority 2015, published 2018).

Tests used:
[1] = tested on: Phakopsora pachyrhizi; test: Phakopsora pachyrhizi / soybean / leaf disc preventative (Asian soybean rust); type: in vivo; details: foliar, 200 ppm in the applied formulation, soybean leaf disks, assessed 12 to 14 days after application, read-out: disease control compared to untreated control leaf disks
Procedure: Leaf disks or leaf segments of various plant species are cut from plants grown in a greenhouse. The cut leaf disks or segments are placed in multiwell plates (24-well format) onto water agar. The leaf disks are sprayed with a test solution before (preventative) or after (curative) inoculation. Compounds to be tested are prepared as DMSO solutions (max. 10 mg/mL) which are diluted to the appropriate concentration with 0.025% Tween20 just before spraying. The inoculated leaf disks or segments are incubated under defined conditions (temperature, relative humidity, light, etc.) according to the respective test system. A single evaluation of disease level is carried out 3 to 14 days after inoculation, depending on the pathosystem. Percent disease control relative to the untreated check leaf disks or segments is then calculated.
Example 3: Fungicidal Activity Against Phakopsora pachyrhizi/Soybean/Leaf Disc Preventative (Asian Soybean Rust)
Soybean leaf disks are placed on water agar in multiwell plates (24-well format) and sprayed with the formulated test compound diluted in water. One day after application leaf discs are inoculated by spraying a spore suspension on the lower leaf surface. After an incubation period in a climate cabinet of 24-36 hours in darkness at 20° C. and 75% relative humidity leaf disc are kept at 20° C. with 12 hours light/day and 75% relative humidity. The activity of a compound is assessed as percent disease control compared to untreated when an appropriate level of disease damage appears in untreated check leaf disks (12 to 14 days after application).
The following compounds at 200 ppm in the applied formulation give at least 80% disease control in this test when compared to untreated control leaf disks under the same conditions, which show extensive disease development.

[2] = tested on: Puccinia recondita f. Sp. Tritici; test: Puccinia recondita f. sp. tritici / wheat / leaf disc curative (brown rust); type: in vivo; details: foliar, 200 ppm in the applied formulation, wheat leaf segments, curative (applied 1 day after inoculation), assessed 6 to 8 days after application, read-out: disease control compared to untreated control leaf disks
Summary of the method: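 Curative treatment: formulated compound in water was applied 1 day post-inoculation to spore-inoculated wheat cv. Kanzler segments held on agar. Segments stayed at 19° C and 75% relative humidity (12 h photoperiod after application), and disease control relative to untreated checks was assessed 6 to 8 days later.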

[3] = tested on: Puccinia recondita f. Sp. Tritici; test: Puccinia recondita f. sp. tritici / wheat / leaf disc preventative (brown rust); type: in vivo; details: foliar, 200 ppm in the applied formulation, wheat leaf segments, preventative, assessed 7 to 9 days after application, read-out: disease control compared to untreated control leaf disks
Summary of the method: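 Wheat cv. Kanzler leaf segments on agar sprayed with formulated compound in water, inoculated with rust spores 1 day later. Incubated at 19° C, 75% rh, 12 h light/12 h dark; percent disease control versus untreated scored 7 to 9 days after application; tested at 200 ppm.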

[4] = tested on: Glomerella lacenarium (Colletotrichum lacenarium); test: Glomerella lacenarium (Colletotrichum lacenarium) liquid culture / cucumber / preventative (anthracnose); type: cell-based; details: 20 ppm in the applied formulation, liquid culture in PDB, 24° C., 3 to 4 days after application, read-out: disease control (inhibition of growth, photometric) compared to untreated control
Summary of the method: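 At 20 ppm in the applied formulation, compounds were mixed with fungal spores in potato dextrose broth and held at 24° C. After 3–4 days, photometric growth measurement gave percent antifungal activity relative to untreated control.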

CC(=O)C(=O)N(Cc1ccc(-c2noc(C(F)(F)F)n2)cc1)C1CC1 [Compound 1.91, N-cyclopropyl-2-oxo-N-[[4-[5-(trifluoromethyl)-1,2,4-oxadiazol-3-yl]phenyl]methyl]propanamide]
≥ 80%: pest or weed control at 200 ppm [1] | pest or weed control at 200 ppm [2] | pest or weed control at 200 ppm [3] | inhibition at 20 ppm [4]

CC(C)(C)C(=O)C(=O)NCc1ccc(-c2noc(C(F)(F)F)n2)cc1F [Compound 1.40, N-[[2-fluoro-4-[5-(trifluoromethyl)-1,2,4-oxadiazol-3-yl]phenyl]methyl]-3,3-dimethyl-2-oxo-butanamide]
≥ 80%: pest or weed control at 200 ppm [1] | pest or weed control at 200 ppm [2] | pest or weed control at 200 ppm [3] | inhibition at 20 ppm [4]

CCN(Cc1ccc(-c2noc(C(F)(F)F)n2)cc1)C(=O)C(=O)N(C)C [Compound 4.27, N′-ethyl-N,N-dimethyl-N′-[[4-[5-(trifluoromethyl)-1,2,4-oxadiazol-3-yl]phenyl]methyl] oxamide]
≥ 80%: pest or weed control at 200 ppm [1] | pest or weed control at 200 ppm [2] | pest or weed control at 200 ppm [3] | inhibition at 20 ppm [4]

O=C(NCc1ccc(-c2noc(C(F)(F)F)n2)cc1)C(=O)c1cccs1 [Compound 1.51, 2-oxo-2-(2-thienyl)-N-[[4-[5-(trifluoromethyl)-1,2,4-oxadiazol-3-yl]phenyl]methyl]acetamide]
≥ 80%: pest or weed control at 200 ppm [1] | pest or weed control at 200 ppm [2] | pest or weed control at 200 ppm [3] | inhibition at 20 ppm [4]

CCC(=O)C(=O)N(Cc1ccc(-c2noc(C(F)(F)F)n2)cc1)C(C)C [Compound 1.32]
≥ 80%: pest or weed control at 200 ppm [1] | pest or weed control at 200 ppm [2] | pest or weed control at 200 ppm [3] | inhibition at 20 ppm [4]

CC(=O)C(=O)NCc1c(F)cc(-c2noc(C(F)(F)F)n2)cc1F [Compound 1.87, N-[[2,6-difluoro-4-[5-(trifluoromethyl)-1,2,4-oxadiazol-3-yl]phenyl]methyl]-2-oxo-propanamide]
≥ 80%: pest or weed control at 200 ppm [1] | pest or weed control at 200 ppm [2] | pest or weed control at 200 ppm [3] | inhibition at 20 ppm [4]

O=C(NCc1c(F)cc(-c2noc(C(F)(F)F)n2)cc1F)C(=O)c1ccccc1 [Compound 1.68, N-[[2,6-difluoro-4-[5-(trifluoromethyl)-1,2,4-oxadiazol-3-yl]phenyl]methyl]-2-oxo-2-phenyl-acetamide]
≥ 80%: pest or weed control at 200 ppm [1] | pest or weed control at 200 ppm [3] | inhibition at 20 ppm [4]

CCCCON(Cc1ccc(-c2noc(C(F)(F)F)n2)cc1)C(=O)C(N)=O [Compound 4.87, N′-butoxy-N′-[[4-[5-(trifluoromethyl)-1,2,4-oxadiazol-3-yl]phenyl]methyl] oxamide]
≥ 80%: pest or weed control at 200 ppm [1] | pest or weed control at 200 ppm [3] | inhibition at 20 ppm [4]

C=CCN(Cc1ccc(-c2noc(C(F)(F)F)n2)cc1)C(=O)C(C)=O [Compound 1.16, N-allyl-2-oxo-N-[[4-[5-(trifluoromethyl)-1,2,4-oxadiazol-3-yl]phenyl]methyl]propanamide]
≥ 80%: pest or weed control at 200 ppm [1] | pest or weed control at 200 ppm [2] | inhibition at 20 ppm [4]

O=C(NCc1ccc(-c2noc(C(F)(F)F)n2)cc1Cl)C(=O)c1ccccc1 [Compound 1.59, N-[[2-chloro-4-[5-(trifluoromethyl)-1,2,4-oxadiazol-3-yl]phenyl]methyl]-2-oxo-2-phenyl-acetamide]
≥ 80%: pest or weed control at 200 ppm [1] | pest or weed control at 200 ppm [3] | inhibition at 20 ppm [4]

CC(C)(C)C(=O)C(=O)NCc1ccc(-c2noc(C(F)(F)F)n2)cc1Cl [Compound 1.63, N-[[2-chloro-4-[5-(trifluoromethyl)-1,2,4-oxadiazol-3-yl]phenyl]methyl]-3,3-dimethyl-2-oxo-butanamide]
≥ 80%: pest or weed control at 200 ppm [1] | pest or weed control at 200 ppm [3] | inhibition at 20 ppm [4]

O=C(NCc1ccc(-c2noc(C(F)(F)F)n2)c(F)c1F)C(=O)c1ccccc1 [Compound 1.46, N-[[2,3-difluoro-4-[5-(trifluoromethyl)-1,2,4-oxadiazol-3-yl]phenyl]methyl]-2-oxo-2-phenyl-acetamide]
≥ 80%: pest or weed control at 200 ppm [1] | pest or weed control at 200 ppm [3] | inhibition at 20 ppm [4]

O=C(NCc1ccc(-c2noc(C(F)(F)F)n2)cc1Cl)C(=O)c1ccco1 [Compound 1.84, N-[[2-chloro-4-[5-(trifluoromethyl)-1,2,4-oxadiazol-3-yl]phenyl]methyl]-2-(2-furyl)-2-oxo-acetamide]
≥ 80%: pest or weed control at 200 ppm [1] | pest or weed control at 200 ppm [3] | inhibition at 20 ppm [4]

Cc1cc(-c2noc(C(F)(F)F)n2)ccc1CNC(=O)C(=O)c1ccco1 [Compound 1.86]
≥ 80%: pest or weed control at 200 ppm [1] | pest or weed control at 200 ppm [3]

O=C(NCc1ccc(-c2noc(C(F)(F)F)n2)cc1Cl)C(=O)c1cccs1 [Compound 1.62, N-[[2-chloro-4-[5-(trifluoromethyl)-1,2,4-oxadiazol-3-yl]phenyl]methyl]-2-oxo-2-(2-thienyl)acetamide]
≥ 80%: pest or weed control at 200 ppm [1] | pest or weed control at 200 ppm [3] | inhibition at 20 ppm [4]

O=C(NCc1ccc(-c2noc(C(F)(F)F)n2)c(F)c1)C(=O)c1ccccc1 [Compound 1.42, N-[[3-fluoro-4-[5-(trifluoromethyl)-1,2,4-oxadiazol-3-yl]phenyl]methyl]-2-oxo-2-phenyl-acetamide]
≥ 80%: pest or weed control at 200 ppm [1] | pest or weed control at 200 ppm [3] | inhibition at 20 ppm [4]

CC(C)CC(=O)C(=O)NCc1ccc(-c2noc(C(F)(F)F)n2)cc1Cl [Compound 1.61, N-[[2-chloro-4-[5-(trifluoromethyl)-1,2,4-oxadiazol-3-yl]phenyl]methyl]-4-methyl-2-oxo-pentanamide]
≥ 80%: pest or weed control at 200 ppm [1] | pest or weed control at 200 ppm [3]

CON(Cc1ccc(-c2noc(C(F)(F)F)n2)cc1)C(=O)C(=O)c1cccs1 [Compound 1.73, N-methoxy-2-oxo-2-(2-thienyl)-N-[[4-[5-(trifluoromethyl)-1,2,4-oxadiazol-3-yl]phenyl]methyl]acetamide]
≥ 80%: pest or weed control at 200 ppm [1] | pest or weed control at 200 ppm [3] | inhibition at 20 ppm [4]

CON(Cc1ccc(-c2noc(C(F)(F)F)n2)cc1F)C(=O)C(=O)c1cccs1 [Compound 1.56, N-[[2-fluoro-4-[5-(trifluoromethyl)-1,2,4-oxadiazol-3-yl]phenyl]methyl]-N-methoxy-2-oxo-2-(2-thienyl)acetamide]
≥ 80%: pest or weed control at 200 ppm [1] | pest or weed control at 200 ppm [3] | inhibition at 20 ppm [4]

Cc1cc(-c2noc(C(F)(F)F)n2)ccc1CNC(=O)C(=O)c1cccs1 [Compound 1.66, N-[[2-methyl-4-[5-(trifluoromethyl)-1,2,4-oxadiazol-3-yl]phenyl]methyl]-2-oxo-2-(2-thienyl)acetamide]
≥ 80%: pest or weed control at 200 ppm [1] | pest or weed control at 200 ppm [3]

CON(Cc1ccc(-c2noc(C(F)(F)F)n2)cc1F)C(=O)C(=O)C(C)(C)C [Compound 1.57, N-[[2-fluoro-4-[5-(trifluoromethyl)-1,2,4-oxadiazol-3-yl]phenyl]methyl]-N-methoxy-3,3-dimethyl-2-oxo-butanamide]
≥ 80%: pest or weed control at 200 ppm [1] | pest or weed control at 200 ppm [3] | inhibition at 20 ppm [4]

O=C(NCc1ccc(-c2noc(C(F)(F)F)n2)c(F)c1F)C(=O)c1cccs1 [Compound 1.48, N-[[2,3-difluoro-4-[5-(trifluoromethyl)-1,2,4-oxadiazol-3-yl]phenyl]methyl]-2-oxo-2-(2-thienyl)acetamide]
≥ 80%: pest or weed control at 200 ppm [1] | pest or weed control at 200 ppm [3] | inhibition at 20 ppm [4]

CON(Cc1ccc(-c2noc(C(F)(F)F)n2)cc1F)C(=O)C(=O)c1ccccc1 [Compound 1.54, N-[[2-fluoro-4-[5-(trifluoromethyl)-1,2,4-oxadiazol-3-yl]phenyl]methyl]-N-methoxy-2-oxo-2-phenyl-acetamide]
≥ 80%: pest or weed control at 200 ppm [1] | pest or weed control at 200 ppm [3] | inhibition at 20 ppm [4]
